Measurements taken from paper PMC4858680, “A platinum-based hybrid drug design approach to circumvent acquired resistance to molecular targeted tyrosine kinase inhibitors” (Scientific Reports, 2016).
Where two headings read alike, the source gives them in different places.

Tests used:
Type in all cases: binding
BLK = target: T1, BLK (Homo sapiens, UniProt P51451); conditions: for Percent control: BLK, 10 μM; for remaining binding at 10 µM: read-out: Percent control
T1 construct: purchased DiscoveRx KINOMEscan

BTK = target: T2, BTK (Homo sapiens, UniProt Q06187); conditions: for remaining binding at 10 µM: read-out: Percent control
T2 construct: purchased DiscoveRx KINOMEscan
T2 sequence (Q06187 whole entry): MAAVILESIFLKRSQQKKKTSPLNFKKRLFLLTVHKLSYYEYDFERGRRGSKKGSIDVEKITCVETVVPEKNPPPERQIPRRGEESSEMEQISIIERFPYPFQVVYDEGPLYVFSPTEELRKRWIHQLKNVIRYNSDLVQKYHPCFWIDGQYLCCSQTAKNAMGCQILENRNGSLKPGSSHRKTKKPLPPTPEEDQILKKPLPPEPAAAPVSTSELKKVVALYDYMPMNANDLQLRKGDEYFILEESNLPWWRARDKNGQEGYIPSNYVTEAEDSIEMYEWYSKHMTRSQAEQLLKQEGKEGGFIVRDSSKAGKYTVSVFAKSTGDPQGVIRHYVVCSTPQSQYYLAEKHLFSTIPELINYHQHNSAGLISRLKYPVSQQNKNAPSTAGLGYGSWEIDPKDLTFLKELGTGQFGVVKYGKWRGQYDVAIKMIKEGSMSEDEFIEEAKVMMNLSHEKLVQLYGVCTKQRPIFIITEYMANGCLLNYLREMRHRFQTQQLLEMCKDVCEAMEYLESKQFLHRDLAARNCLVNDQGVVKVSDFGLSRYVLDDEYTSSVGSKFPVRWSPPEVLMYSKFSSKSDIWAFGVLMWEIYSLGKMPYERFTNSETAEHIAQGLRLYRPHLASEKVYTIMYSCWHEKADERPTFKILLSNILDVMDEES

EPHA8 = target: T3, EPHA8 (Homo sapiens, UniProt P29322); conditions: for remaining binding at 10 µM: read-out: Percent control
T3 construct: purchased DiscoveRx KINOMEscan
T3 sequence (P29322 28-1005): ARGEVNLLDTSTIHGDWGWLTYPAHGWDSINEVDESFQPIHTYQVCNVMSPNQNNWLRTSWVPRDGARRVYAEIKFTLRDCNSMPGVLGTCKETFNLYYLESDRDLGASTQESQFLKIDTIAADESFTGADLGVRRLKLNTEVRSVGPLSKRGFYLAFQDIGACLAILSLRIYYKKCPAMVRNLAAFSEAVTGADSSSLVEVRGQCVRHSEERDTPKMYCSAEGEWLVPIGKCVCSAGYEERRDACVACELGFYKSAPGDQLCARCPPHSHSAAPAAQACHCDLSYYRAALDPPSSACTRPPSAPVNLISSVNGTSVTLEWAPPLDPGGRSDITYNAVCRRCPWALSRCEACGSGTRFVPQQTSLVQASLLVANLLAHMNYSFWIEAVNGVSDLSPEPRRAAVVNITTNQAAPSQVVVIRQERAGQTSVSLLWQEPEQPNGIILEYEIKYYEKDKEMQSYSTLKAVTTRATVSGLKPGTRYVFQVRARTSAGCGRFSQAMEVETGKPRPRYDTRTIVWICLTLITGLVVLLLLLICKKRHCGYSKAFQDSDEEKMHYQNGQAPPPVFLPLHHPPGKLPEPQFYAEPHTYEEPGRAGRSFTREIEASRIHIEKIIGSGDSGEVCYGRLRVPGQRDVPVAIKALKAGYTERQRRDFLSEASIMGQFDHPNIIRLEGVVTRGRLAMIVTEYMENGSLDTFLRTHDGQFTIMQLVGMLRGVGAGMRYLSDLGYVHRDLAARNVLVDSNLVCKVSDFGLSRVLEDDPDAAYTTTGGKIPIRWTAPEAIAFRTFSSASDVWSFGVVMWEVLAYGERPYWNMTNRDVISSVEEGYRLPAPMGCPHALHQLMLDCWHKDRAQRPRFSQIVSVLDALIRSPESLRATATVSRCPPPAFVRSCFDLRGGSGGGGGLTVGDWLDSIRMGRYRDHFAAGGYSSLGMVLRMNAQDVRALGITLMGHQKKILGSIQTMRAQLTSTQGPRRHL

FGFR4 = target: T4, FGFR4 (Homo sapiens, UniProt P22455); conditions: for remaining binding at 10 µM: read-out: Percent control
T4 construct: purchased DiscoveRx KINOMEscan
T4 sequence (P22455 22-802): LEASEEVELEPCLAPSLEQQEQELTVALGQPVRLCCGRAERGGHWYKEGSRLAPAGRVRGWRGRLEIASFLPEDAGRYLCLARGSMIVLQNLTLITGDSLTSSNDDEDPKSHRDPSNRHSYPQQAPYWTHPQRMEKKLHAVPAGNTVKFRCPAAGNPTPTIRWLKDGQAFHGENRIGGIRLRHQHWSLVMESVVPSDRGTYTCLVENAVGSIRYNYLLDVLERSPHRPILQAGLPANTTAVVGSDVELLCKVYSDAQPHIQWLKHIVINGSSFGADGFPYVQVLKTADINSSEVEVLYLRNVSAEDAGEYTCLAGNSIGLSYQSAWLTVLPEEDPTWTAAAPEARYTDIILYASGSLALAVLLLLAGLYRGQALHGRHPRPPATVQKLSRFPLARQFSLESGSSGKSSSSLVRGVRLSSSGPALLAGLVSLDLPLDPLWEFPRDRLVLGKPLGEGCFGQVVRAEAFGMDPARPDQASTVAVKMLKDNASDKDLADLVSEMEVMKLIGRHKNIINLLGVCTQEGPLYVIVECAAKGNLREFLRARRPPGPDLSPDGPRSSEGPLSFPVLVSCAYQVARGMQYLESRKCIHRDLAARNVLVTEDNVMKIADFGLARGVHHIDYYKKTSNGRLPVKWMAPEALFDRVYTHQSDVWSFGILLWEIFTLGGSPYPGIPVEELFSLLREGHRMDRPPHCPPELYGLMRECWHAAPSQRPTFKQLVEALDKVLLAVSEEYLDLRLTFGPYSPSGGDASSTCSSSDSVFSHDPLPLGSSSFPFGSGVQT

FGR = target: T5, FGR (Homo sapiens, UniProt P09769); conditions: for Percent control: 10 μM; for remaining binding at 10 µM: read-out: Percent control
T5 construct: purchased DiscoveRx KINOMEscan
T5 sequence (P09769 whole entry): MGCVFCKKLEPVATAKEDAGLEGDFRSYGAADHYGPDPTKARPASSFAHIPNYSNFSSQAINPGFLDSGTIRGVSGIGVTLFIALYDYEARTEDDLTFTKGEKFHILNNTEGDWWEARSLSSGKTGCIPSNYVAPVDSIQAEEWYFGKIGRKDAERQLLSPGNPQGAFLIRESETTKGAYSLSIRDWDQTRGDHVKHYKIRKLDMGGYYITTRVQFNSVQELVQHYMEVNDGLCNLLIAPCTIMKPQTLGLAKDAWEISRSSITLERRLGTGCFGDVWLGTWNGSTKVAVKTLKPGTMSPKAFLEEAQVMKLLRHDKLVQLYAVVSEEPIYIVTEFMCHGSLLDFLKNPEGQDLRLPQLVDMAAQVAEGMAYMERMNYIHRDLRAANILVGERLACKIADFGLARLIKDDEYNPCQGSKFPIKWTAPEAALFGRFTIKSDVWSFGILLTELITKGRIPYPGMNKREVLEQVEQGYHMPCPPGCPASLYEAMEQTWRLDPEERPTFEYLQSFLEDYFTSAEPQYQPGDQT

IGF1R = target: T6, IGF1R (Homo sapiens, UniProt P08069); conditions: for remaining binding at 10 µM: read-out: Percent control
T6 construct: purchased DiscoveRx KINOMEscan

INSR = target: T7, INSR (Homo sapiens, UniProt P06213); conditions: for remaining binding at 10 µM: read-out: Percent control
T7 construct: purchased DiscoveRx KINOMEscan
T7 sequence (P06213 28-1382): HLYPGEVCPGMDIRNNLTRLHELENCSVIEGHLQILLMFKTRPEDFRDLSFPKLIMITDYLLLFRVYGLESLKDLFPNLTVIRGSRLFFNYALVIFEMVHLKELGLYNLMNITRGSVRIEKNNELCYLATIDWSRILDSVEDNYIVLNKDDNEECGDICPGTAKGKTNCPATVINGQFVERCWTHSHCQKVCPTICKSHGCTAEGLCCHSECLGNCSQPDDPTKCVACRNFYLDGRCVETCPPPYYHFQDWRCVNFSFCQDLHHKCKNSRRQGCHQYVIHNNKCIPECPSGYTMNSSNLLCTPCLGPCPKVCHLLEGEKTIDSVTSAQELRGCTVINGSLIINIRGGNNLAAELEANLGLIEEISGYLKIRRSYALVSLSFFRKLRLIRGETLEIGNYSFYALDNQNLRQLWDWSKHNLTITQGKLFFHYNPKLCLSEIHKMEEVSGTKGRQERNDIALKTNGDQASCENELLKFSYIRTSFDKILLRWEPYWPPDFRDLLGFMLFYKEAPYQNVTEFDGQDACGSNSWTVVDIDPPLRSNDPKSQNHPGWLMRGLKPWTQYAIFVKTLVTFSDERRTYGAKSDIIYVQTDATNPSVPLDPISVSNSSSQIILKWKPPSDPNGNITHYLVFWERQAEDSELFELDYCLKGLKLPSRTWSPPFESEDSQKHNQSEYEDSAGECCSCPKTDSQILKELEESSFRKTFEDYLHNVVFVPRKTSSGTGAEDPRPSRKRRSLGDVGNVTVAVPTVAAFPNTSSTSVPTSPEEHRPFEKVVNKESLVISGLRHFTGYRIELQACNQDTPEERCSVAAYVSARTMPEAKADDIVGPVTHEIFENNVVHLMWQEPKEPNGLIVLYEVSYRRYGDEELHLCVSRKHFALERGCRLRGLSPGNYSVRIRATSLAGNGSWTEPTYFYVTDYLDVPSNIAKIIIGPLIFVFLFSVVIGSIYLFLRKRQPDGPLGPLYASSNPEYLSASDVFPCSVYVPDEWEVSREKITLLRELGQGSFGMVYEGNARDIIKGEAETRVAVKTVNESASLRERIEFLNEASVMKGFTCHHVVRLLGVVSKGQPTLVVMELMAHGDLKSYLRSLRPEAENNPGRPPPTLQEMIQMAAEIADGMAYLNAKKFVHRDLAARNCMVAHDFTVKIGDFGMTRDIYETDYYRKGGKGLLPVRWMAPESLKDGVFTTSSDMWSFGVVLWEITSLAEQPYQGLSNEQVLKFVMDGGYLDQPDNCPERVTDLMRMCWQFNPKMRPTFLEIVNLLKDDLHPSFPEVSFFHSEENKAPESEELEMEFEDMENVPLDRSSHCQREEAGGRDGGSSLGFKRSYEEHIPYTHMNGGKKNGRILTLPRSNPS

[1] = target: T8, JAK2(JH1domain-catalytic) (Homo sapiens, UniProt O60674); conditions: for remaining binding at 10 µM: read-out: Percent control; for Percent control: 10 μM
T8 construct: JAK2(JH1domain-catalytic); purchased DiscoveRx KINOMEscan
T8 sequence (O60674 840-1132 limits assumed): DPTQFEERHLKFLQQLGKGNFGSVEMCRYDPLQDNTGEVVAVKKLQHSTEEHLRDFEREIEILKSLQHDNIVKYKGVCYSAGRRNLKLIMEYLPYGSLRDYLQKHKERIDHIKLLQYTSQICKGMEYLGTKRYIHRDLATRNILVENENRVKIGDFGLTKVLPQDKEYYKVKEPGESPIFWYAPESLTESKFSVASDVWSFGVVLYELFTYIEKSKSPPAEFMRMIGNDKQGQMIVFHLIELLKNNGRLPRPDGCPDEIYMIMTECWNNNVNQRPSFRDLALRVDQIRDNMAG

TNK2 = target: T9, TNK2 (Homo sapiens, UniProt Q07912); conditions: for remaining binding at 10 µM: read-out: Percent control
T9 construct: purchased DiscoveRx (KINOMEscan service)

TRKA = target: T10, TRKA (Homo sapiens, UniProt P04629); conditions: for remaining binding at 10 µM: read-out: Percent control
T10 construct: purchased DiscoveRx (KINOMEscan service)
T10 sequence (P04629 33-796): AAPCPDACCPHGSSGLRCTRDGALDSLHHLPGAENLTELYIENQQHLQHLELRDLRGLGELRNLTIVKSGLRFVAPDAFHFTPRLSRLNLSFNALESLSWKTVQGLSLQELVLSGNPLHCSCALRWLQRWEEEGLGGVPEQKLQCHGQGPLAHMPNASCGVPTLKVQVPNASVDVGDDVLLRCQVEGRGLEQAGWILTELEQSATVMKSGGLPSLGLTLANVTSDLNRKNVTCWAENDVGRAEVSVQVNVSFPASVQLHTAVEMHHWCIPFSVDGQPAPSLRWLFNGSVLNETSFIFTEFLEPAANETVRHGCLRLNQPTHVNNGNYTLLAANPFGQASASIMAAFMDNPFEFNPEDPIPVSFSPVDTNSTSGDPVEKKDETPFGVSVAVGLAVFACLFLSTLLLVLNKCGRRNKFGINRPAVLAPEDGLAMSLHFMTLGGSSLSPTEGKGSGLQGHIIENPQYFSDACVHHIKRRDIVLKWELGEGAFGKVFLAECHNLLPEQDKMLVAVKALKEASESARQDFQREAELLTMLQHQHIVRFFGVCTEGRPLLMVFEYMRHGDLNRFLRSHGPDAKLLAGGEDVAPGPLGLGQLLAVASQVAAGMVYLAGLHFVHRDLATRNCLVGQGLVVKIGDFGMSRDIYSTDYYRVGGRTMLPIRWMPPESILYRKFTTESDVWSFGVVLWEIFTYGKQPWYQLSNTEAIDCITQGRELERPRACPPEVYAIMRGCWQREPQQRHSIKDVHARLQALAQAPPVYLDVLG

TXK = target: T11, TXK (Homo sapiens, UniProt P42681); conditions: for Percent control: 10 μM; for remaining binding at 10 µM: read-out: Percent control
T11 construct: purchased DiscoveRx (KINOMEscan service)
T11 sequence (P42681 1-527): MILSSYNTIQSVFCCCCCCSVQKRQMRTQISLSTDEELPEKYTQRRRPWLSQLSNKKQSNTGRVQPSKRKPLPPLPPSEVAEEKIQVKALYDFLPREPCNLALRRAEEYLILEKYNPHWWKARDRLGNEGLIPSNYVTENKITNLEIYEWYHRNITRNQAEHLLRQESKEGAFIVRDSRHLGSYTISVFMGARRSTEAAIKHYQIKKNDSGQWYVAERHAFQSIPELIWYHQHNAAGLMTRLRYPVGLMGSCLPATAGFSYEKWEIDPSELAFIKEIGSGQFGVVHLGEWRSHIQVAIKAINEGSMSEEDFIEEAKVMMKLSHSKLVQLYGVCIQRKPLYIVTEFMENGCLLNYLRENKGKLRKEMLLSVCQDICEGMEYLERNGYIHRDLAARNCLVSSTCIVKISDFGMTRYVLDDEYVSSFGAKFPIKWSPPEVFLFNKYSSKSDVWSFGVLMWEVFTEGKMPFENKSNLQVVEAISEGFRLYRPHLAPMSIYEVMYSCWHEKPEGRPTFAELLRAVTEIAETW

[2] = target: T12, TYK2(JH1domain-catalytic) (Homo sapiens, UniProt P29597); conditions: for remaining binding at 10 µM: read-out: Percent control; for Percent control: 10 μM
T12 construct: TYK2(JH1domain-catalytic); purchased DiscoveRx (KINOMEscan service)
T12 sequence (P29597 897-1176 limits assumed): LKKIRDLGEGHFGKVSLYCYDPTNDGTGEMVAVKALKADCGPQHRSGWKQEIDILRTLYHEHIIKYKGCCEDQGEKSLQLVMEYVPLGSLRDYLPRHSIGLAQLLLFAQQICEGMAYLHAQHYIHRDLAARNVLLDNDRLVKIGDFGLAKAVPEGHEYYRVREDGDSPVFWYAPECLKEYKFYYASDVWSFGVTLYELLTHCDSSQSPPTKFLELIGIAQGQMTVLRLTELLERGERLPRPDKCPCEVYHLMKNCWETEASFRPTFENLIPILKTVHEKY

[3] = target: T13, TYK2(JHSdomain-pseudokinase) (Homo sapiens, UniProt P29597); conditions: for remaining binding at 10 µM: read-out: Percent control; for Percent control: 10 μM
T13 construct: TYK2(JHSdomain-pseudokinase); purchased DiscoveRx Corporation (KINOMEscan service)
T13 sequence (P29597 589-875 limits assumed): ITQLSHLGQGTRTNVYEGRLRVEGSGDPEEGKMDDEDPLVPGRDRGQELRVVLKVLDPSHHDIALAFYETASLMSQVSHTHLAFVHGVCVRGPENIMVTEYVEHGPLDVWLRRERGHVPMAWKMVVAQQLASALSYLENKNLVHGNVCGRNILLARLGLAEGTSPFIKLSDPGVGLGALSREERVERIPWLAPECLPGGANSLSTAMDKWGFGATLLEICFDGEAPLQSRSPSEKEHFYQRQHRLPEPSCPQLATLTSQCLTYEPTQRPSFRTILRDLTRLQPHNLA

VEGFR2 = target: T14, VEGFR2 (Homo sapiens, UniProt P35968); conditions: for Percent control: 10 μM; for remaining binding at 10 µM: read-out: Percent control
T14 construct: purchased DiscoveRx Corporation (KINOMEscan service)

| SMILES | Percent control (BLK) [%] | remaining binding at 10 µM (BTK; BTK, 10 μM) [%] | Percent control (EPHA8; EPHA8, 10 μM) [%] | Percent control (FGFR4; FGFR4, 10 μM) [%] | Percent control (FGR) [%] | Percent control (IGF1R; IGF1R, 10 μM) [%] | Percent control (INSR; INSR, 10 μM) [%] | remaining binding at 10 µM [1] [%] | Percent control (TNK2; TNK2, 10 μM) [%] | Percent control (TRKA; TRKA, 10 μM) [%] | Percent control (TXK) [%] | remaining binding at 10 µM [2] [%] | remaining binding at 10 µM [3] [%] | Percent control (VEGFR2) [%] | Percent control (BTK; BTK, 10 μM) [%] | Percent control [1] [%] | Percent control [2] [%] | Percent control [3] [%] | remaining binding at 10 µM (BLK) [%] | remaining binding at 10 µM (FGR) [%] | also measured |
| --- | --- | --- | --- | --- | --- | --- | --- | --- | --- | --- | --- | --- | --- | --- | --- | --- | --- | --- | --- | --- | --- |
| Cc1ccc(NC(=O)c2ccc(CN3CCN(C)CC3)cc2)cc1Nc1nccc(-c2cccnc2)n1 [Imatinib, reference compound] | 4.9 | 100 | 12.3 | 100 | 19.4 | 100 | 100 | 100 | 100 | 100 | 100 | 100 | 46.5 | 100 |  |  |  |  |  |  |  |
| Cc1ccc(NC(=O)c2ccc(CN3CCN(C)CC3)cc2)cc1Nc1nccc(-c2cccnc2)[n+]1[Pt-2]1([Cl])[NH2+]C2CCCCC2[NH2+]1 (stereo not drawn) [1b, oxaliplatin-imatinib] | 12 |  | 68 | 94 | 80 | 100 | 92 |  | 100 | 98 | 87 |  |  | 100 | 100 | 100 | 94 | 100 |  |  |  |
| COc1cc2c(Nc3ccc(Br)cc3F)[n+]([Pt-2]3([Cl])[NH2+]C4CCCCC4[NH2+]3)cnc2cc1OCC1CCN(C)CC1 (stereo not drawn) [3b, oxaliplatin-vandetanib] | 1.4 |  | 6.8 | 97 | 33 | 100 | 72 |  | 100 | 92 | 56 |  |  | 3.2 | 37 | 100 | 83 | 100 |  |  |  |
| C#Cc1cccc(Nc2c3cc(OCCOC)c(OCCOC)cc3nc[n+]2[Pt@SP2-2]([NH3+])([NH3+])[Cl])c1 [2a, cisplatin-erlotinib] | 41 |  | 56 | 99 | 81 | 86 | 85 |  |  | 94 | 76 |  |  | 98 | 87 | 46 | 92 | 100 |  |  | Percent control (TNK2): 100 |
| COc1cc2c(Nc3ccc(Br)cc3F)ncnc2cc1OCC1CCN(C)CC1 [Vandetanib, reference compound] |  | 14.5 |  |  |  |  |  | 100 |  |  |  | 100 | 100 |  |  |  |  |  | 0.7 | 2.6 | remaining binding at 10 µM (EPHA8; EPHA8, 10 μM): 0.9%; remaining binding at 10 µM (FGFR4; FGFR4, 10 μM): 18.7%; remaining binding at 10 µM (IGF1R; IGF1R, 10 μM): 100%; remaining binding at 10 µM (INSR; INSR, 10 μM): 100%; remaining binding at 10 µM (TNK2; TNK2, 10 μM): 100%; remaining binding at 10 µM (TRKA; TRKA, 10 μM): 100%; remaining binding at 10 µM (TXK): 27%; remaining binding at 10 µM (VEGFR2): 7.6% |
| C#Cc1cccc(Nc2ncnc3cc(OCCOC)c(OCCOC)cc23)c1 [Erlotinib] |  |  |  |  |  |  |  | 27 |  |  |  | 100 | 19.4 |  |  |  |  |  | 1.9 | 9.9 | remaining binding at 10 µM (BTK): 100%; remaining binding at 10 µM (EPHA8): 8.6%; remaining binding at 10 µM (FGFR4): 100%; remaining binding at 10 µM (IGF1R): 100%; remaining binding at 10 µM (INSR): 100%; remaining binding at 10 µM (TNK2; TNK2, 10 μM): 100%; remaining binding at 10 µM (TRKA): 100%; remaining binding at 10 µM (TXK): 27.5%; remaining binding at 10 µM (VEGFR2): 36.3% |
